# According to patent publication US6465479B1, “Pyridomorphinans and use thereof” (Southern Research Institute, priority 1999, dated 2002):
# “And” between values parts separate entries of the source, which are not always exact repeats. Equal entries are not always repeated. “Also recorded” adds a separate entry of the source. Where two headings read alike, the source gives them in different places.
# Tests used:
# mouse vas deferens (MVD) [1] = assay: Opioid agonist activity in electrically stimulated mouse vas deferens (MVD); format: cell-based; conditions: percentage inhibition of contraction at 1 μM
# Protocol: The opioid agonist and antagonist potencies were determined on the electrically stimulated mouse vas deferens (MVD) and guinea pig ileum (GPI) smooth muscle preparations.
# δ receptors = δ receptors (Rattus norvegicus, UniProt P33533); conditions: read-out: K1 (nM) ± SEM δ; displacement of [3H]DADLE (1.3-2.0 nM), rat brain membranes, 100 nM DAMGO to block μ sites
# κ receptors = κ receptors (Cavia porcellus, UniProt P41144); conditions: read-out: K1 (nM) ± SEM K1 (κ); displacement of [3H]U69,593 (1.2-[…]), guinea pig brain membranes
# mu (DAMGO) = target: T1, mu (DAMGO) (Mus musculus, UniProt P42866); assay: Antagonism of mu agonist DAMGO antinociception in the 55° C. tail-flick test; format: in vivo
# T1 construct: male ICR mice(20-30 grams) were used; from tissue; host or cells: whole animal (male ICR mice), tail-flick test
# Protocol: (§1) Antinociception was assessed using either the 55° C. warm-water tail-flick test or the acetic-acid writhing assay. […] Each mouse was first tested for baseline latency by immersing its tail in the water and recording the time to response. Mice not responding within 5 sec were excluded from further testing. Mice were then administered the test compound and tested for antinociception at 10, 20, 30, 45, 60 and 90 min post-injection. A maximum score was assigned (100%) to animals not responding within 15 sec to avoid tissue damage. Antinociception was calculated by the following formula: % antinociception=100×(test latency-control latency)/(15-control latency). For the acetic acid writhing test, mice were injected i.p. with 0.9% acetic acid. They were then placed in a clear Plexiglas observation jar and the number of abdominal writhes recorded for 15 min (Mogil et al., Heritability of nociception I: responses of 11 inbred mouse strains on 12 measures of nociception. Pain 80:67-82,1999). Percent antinociception was calculated using the formula: % MPE (maximum possible effect)=100−((#writhes individual mouse/mean # writhes control group)×100).
# (§2) Mice were then injected with A90 doses of selective mu, delta or kappa agonists and antinociception was assessed in the 55° C. tail-flick test.
# μ receptors = target: T2, μ receptors (Rattus norvegicus, UniProt P33535); assay: μ opioid receptor binding, displacement of [3H]DAMGO in rat brain membranes; conditions: displacement of [3H]DAMGO (1.4-3.0 nM), read-out: K1 (nM) ± SEM μ
# T2 construct: from tissue; host or cells: rat brain membranes
# kappa (U69,593) = target: T3, kappa (U69,593) (Mus musculus, UniProt P33534); assay: Antagonism of kappa agonist U69,593 antinociception in the 55° C. tail-flick test; format: in vivo
# T3 construct: male ICR mice(20-30 grams) were used; from tissue; host or cells: whole animal (male ICR mice), tail-flick test
# Protocol: as §1, §2
# guinea pig ileum (GPI) = assay: Opioid agonist activity in electrically stimulated guinea pig ileum (GPI); format: cell-based
# delta-1 (DPDPE) = target: T4, delta-1 (DPDPE) (Mus musculus, UniProt P32300); assay: Antagonism of delta-1 agonist DPDPE antinociception in the 55° C. tail-flick test; format: in vivo
# T4 construct: male ICR mice(20-30 grams) were used; from tissue; host or cells: whole animal (male ICR mice), tail-flick test
# Protocol: as §1, §2
# male ICR mice [2] = assay: 55° C. warm-water tail-flick test, antinociception; format: in vivo, mouse; conditions: for agonist character in tail-flick, i.c.v.: icv injection
# Protocol: (§3) In the following examples, male ICR mice(20-30 grams) were used. […] The solution was brought up to approximately pH 5.5 with 1.74 M NaOH and then the final volume adjusted with distilled water. […] Additional compounds used in these studies were dissolved in distilled water (i.c.v. injections) or physiological saline (i.p. injections).
# as §1
# [3] = target: T5, delta-2 ([D-Ala2, Glu4]deltorphin) (Mus musculus, UniProt P32300); assay: Antagonism of delta-2 agonist [D-Ala2, Glu4]deltorphin antinociception in the 55° C. tail-flick test; format: in vivo
# T5 construct: male ICR mice(20-30 grams) were used; from tissue; host or cells: whole animal (male ICR mice), tail-flick test
# Protocol: as §1, §2
# mice = assay: Overt signs of toxicity in mice during the antinociceptive studies; conditions: dose ranges tested
# morphine pretreated mice = assay: Acute morphine physical dependence, precipitated withdrawal (vertical jumps)
# male ICR mice [4] = assay: Acetic acid writhing assay, antinociception, tolerance and antagonist pretreatment; format: in vivo, mouse; conditions: for Repeated Injections A50 (95% C.I.) i.c.v. / Repeated Injections A50 (95% C.I.) i.p. / Control A50 (95% C.I.) i.p. / Control A50 (95% C.I.) i.c.v.: acetic acid writhing; for Repeated Injections A50 (95% C.I.) i.c.v. / Repeated Injections A50 (95% C.I.) i.p.: after A90 dose ×2 daily, 3 days; for Control A50 (95% C.I.) i.p. / Control A50 (95% C.I.) i.c.v.: control mice
# Protocol: as §3, §1
# Control mice received a vehicle injection (5 μl distilled water, i.c.v., −24 hr).
# [5] = system: μ opioid receptor (PL-017) in the GPI preparation; conditions: data from published sources; cited from earlier work
# [6] = target: T6, δ opioid receptor (DPDPE) in the MVD preparation (Mus musculus, UniProt P32300); conditions: data from published sources; cited from earlier work
# T6 construct: electrically stimulated mouse vas deferens (MVD) and guinea pig ileum (GPI) smooth muscle preparations; from tissue; host or cells: mouse vas deferens
# mouse vas deferens (MVD) [7] = conditions: percentage inhibition of contraction at 1 μM; data from published sources; cited from earlier work
# T1 sequence (P42866 whole entry): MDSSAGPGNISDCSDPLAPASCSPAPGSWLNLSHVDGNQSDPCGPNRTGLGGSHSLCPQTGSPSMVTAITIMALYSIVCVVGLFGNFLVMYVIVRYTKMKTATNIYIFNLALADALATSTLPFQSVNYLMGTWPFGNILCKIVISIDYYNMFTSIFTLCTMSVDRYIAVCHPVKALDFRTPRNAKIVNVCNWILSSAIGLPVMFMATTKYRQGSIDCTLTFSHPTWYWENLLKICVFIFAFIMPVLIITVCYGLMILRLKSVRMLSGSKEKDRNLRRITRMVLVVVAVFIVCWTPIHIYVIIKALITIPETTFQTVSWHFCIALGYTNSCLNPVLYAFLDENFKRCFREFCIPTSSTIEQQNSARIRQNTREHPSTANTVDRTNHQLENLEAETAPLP
# T4 sequence (P32300 whole entry): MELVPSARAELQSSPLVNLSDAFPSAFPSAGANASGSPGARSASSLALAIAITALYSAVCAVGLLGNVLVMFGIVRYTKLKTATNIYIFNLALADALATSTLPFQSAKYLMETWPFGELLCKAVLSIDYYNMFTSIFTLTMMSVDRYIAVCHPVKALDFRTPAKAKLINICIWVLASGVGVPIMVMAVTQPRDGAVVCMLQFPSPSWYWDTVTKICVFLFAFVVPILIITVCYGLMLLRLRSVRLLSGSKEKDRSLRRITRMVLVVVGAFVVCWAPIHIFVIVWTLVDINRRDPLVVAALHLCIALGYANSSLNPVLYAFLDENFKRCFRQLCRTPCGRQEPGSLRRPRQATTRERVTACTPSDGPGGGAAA
# T5 sequence (P32300 whole entry): as above
# Chain of κ receptors (P41144 whole entry): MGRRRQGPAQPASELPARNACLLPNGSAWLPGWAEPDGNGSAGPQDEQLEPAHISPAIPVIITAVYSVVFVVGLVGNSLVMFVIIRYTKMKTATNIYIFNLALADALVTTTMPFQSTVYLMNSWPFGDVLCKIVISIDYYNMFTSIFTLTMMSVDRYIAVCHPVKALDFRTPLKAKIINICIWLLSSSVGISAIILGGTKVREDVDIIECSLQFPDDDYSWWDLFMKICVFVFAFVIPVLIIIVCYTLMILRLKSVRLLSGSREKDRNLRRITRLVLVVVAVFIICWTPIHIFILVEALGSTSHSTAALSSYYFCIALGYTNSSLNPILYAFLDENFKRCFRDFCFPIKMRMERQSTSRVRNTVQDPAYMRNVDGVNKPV
# Chain of δ receptors (P33533 whole entry): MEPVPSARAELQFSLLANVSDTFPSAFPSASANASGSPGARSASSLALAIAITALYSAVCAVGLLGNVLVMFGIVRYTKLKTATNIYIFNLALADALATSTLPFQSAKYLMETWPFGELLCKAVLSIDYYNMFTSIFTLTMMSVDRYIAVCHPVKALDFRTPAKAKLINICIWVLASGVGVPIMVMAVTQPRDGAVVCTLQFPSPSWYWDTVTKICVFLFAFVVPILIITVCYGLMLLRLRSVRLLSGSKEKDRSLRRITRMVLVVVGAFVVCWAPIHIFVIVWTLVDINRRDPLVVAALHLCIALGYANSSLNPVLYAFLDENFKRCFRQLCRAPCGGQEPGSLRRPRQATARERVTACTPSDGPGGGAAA
# T3 sequence (P33534 whole entry): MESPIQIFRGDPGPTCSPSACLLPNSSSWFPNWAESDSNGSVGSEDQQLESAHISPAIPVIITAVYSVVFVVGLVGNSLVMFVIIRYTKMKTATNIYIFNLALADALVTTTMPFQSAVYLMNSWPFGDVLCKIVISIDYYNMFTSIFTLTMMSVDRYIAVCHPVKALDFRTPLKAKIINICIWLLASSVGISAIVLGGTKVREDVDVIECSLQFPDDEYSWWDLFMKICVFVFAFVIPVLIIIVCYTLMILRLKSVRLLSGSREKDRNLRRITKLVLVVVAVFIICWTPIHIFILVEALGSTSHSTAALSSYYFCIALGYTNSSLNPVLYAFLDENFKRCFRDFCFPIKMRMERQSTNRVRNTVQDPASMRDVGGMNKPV
# T6 sequence (P32300 whole entry): as the sequence (P32300 whole entry) above
# T2 sequence (P33535 whole entry): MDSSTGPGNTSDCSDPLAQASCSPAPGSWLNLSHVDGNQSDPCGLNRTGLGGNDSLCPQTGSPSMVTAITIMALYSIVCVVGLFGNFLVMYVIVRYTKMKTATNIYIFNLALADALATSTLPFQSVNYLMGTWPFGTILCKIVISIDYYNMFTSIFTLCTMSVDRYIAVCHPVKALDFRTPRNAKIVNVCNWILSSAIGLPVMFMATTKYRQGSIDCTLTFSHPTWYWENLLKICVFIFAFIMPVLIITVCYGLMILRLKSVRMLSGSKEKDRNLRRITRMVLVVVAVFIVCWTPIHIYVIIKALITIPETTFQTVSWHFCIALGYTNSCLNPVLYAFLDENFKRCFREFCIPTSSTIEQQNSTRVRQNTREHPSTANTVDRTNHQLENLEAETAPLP
compound,measurement,setting,value
"Oc1ccc2c3c1O[C@H]1c4ncc(-c5ccc(Cl)cc5)cc4C[C@@]4(O)[C@@H](C2)N(CC2CC2)CC[C@]314 [Compound 6d, 5′-(4-Chlorophenyl)-17-(Cyclopropylmethyl)-6,7-didehydro-3,14-dihydroxy-4,5α-epoxypyrido[2′3′:6,7]morphinan]",agonist activity MVD % max resp,mouse vas deferens (MVD) [1],21%
same,Ki,δ receptors,2.2 ± 0.16 nM
same,Ki,κ receptors,20 ± 1.04 nM
same,ID50 (mg/kg) against DAMGO,"mu (DAMGO); i.p. pretreatment -20 min, A90 i.c.v. agonist 0.1 nmol",28.9 mg/kg
same,"antagonism of mu agonist DAMGO, in words","mu (DAMGO); i.p., compared with delta-2",much less potent
same,Ki,μ receptors,51 ± 8 nM
same,"ID50 (mg/kg) against U69,593","kappa (U69,593); i.p. pretreatment -20 min, A90 i.c.v. agonist 60 nmol, tail-flick",>60 mg/kg
same,"effect on antinociception of kappa agonist U69,593, in words","kappa (U69,593); i.p., doses of up to 60 mg/kg",did not affect
same,agonist character in the GPI,guinea pig ileum (GPI),full agonist
same,IC50,"guinea pig ileum (GPI); Cavia porcellus, agonist",163 nM
same,ID50 (mg/kg) against DPDPE,"delta-1 (DPDPE); i.p. pretreatment -20 min, A90 i.c.v. agonist 30 nmol",15.3 mg/kg
same,"antagonism of delta-1 agonist DPDPE, in words","delta-1 (DPDPE); i.p., compared with delta-2",much less potent
same,% MPE tail flick,"male ICR mice [2]; 100 nmol i.c.v., mice",40.3 % MPE
same,A50 tail-flick i.c.v.,"male ICR mice [2]; 55° C. tail-flick, mice",greater than 100 nmol
same,"agonist character in tail-flick, i.c.v.",male ICR mice [2]; 55° C. tail-flick,only partial agonist effects
same,"antinociceptive effect in tail flick, i.p.","male ICR mice [2]; i.p., doses up to 60 mg/kg",no measurable antinociceptive effect
same,"antagonism of delta-2 agonist, in words",[3]; i.p.,potently antagonized
same,"ID50 (mg/kg) against [D-Ala2, Glu4]deltorphin","[3]; i.p. pretreatment -20 min, A90 i.c.v. agonist 20 nmol",3.4 mg/kg
same,overt signs of toxicity,mice,did not display any overt signs of toxicity
same,vertical jumps precipitated in morphine pretreated mice,"morphine pretreated mice; 10 mg/kg i.p., 4 hr after morphine 100 mg/kg, vs naloxone 10 mg/kg i.p., p<0.001",significantly less vertical jumps than naloxone injection
same,attenuation of naloxone precipitated withdrawal (jumps),"morphine pretreated mice; coadministration 6d 10 mg/kg i.p. + naloxone 10 mg/kg i.p., p<0.05",significantly less jumps than naloxone alone; also recorded: attenuated opioid withdrawal
same,number of writhes,"male ICR mice [4]; 30 nmol i.c.v. (A90), vs vehicle, p<0.001",significantly decreased the number of writhes
same,Repeated Injections A50 (95% C.I.) i.c.v.,male ICR mice [4],10.9 nmol (7.2-16.5
same,Repeated Injections A50 (95% C.I.) i.p.,male ICR mice [4],3.85 mg/kg (0.9-16.0
same,Control A50 (95% C.I.) i.p.,male ICR mice [4],4.6 mg/kg (2.5-8.6
same,"agonist character in acetic acid writhing, i.c.v.",male ICR mice [4]; icv injection,full agonist activity
same,blockade of antinociception by delta or kappa antagonist pretreatment,"male ICR mice [4]; naltrindole 20 mg/kg i.p. -20 min (p>0.99) or nor-BNI 1 nmol i.c.v. -24 hr (p>0.13), 6d 30 nmol i.c.v.",not by naltrindole (p>0.99) or nor-BNI
same,blockade of antinociception by mu antagonist pretreatment,"male ICR mice [4]; β-FNA 19 nmol i.c.v. -24 hr, 6d 30 nmol i.c.v., p<0.002",blocked by pre-treatment with β-FNA
"CN1CC[C@]23c4c5ccc(O)c4O[C@H]2[C@@H](O)C=C[C@H]3[C@H]1C5 [morphine, reference compound]",A50 tail-flick i.c.v.,"male ICR mice [2]; 55° C. tail-flick, mice",2.94 nmol and 1.7 nmol
same,A50 tail-flick i.p.,"male ICR mice [2]; 55° C. tail-flick, i.p., mice",8.0 mg/kg
same,"agonist character in tail-flick, i.c.v.",male ICR mice [2]; 55° C. tail-flick,full agonist effect
same,Repeated Injections A50 (95% C.I.) i.c.v.,male ICR mice [4],0.05 nmol (0.03-0.08
same,Control A50 (95% C.I.) i.c.v.,male ICR mice [4],0.004 nmol
same,Control A50 (95% C.I.) i.c.v.,male ICR mice [4]; listed as Morphine,0.004 nmol (0.003-0.006
same,Repeated Injections A50 (95% C.I.) i.p.,male ICR mice [4],4.78 mg/kg (3.7-6.2
same,Control A50 (95% C.I.) i.p.,male ICR mice [4],2.2 mg/kg (1.8-2.7
Oc1ccc2c3c1O[C@H]1c4[nH]c5ccccc5c4C[C@@]4(O)[C@@H](C2)N(CC2CC2)CC[C@]314 [naltrindole],Ki,δ receptors,0.41 ± 0.09 nM
same,Ki,κ receptors,35.8 ± 4 nM
same,antagonist activity PL-017 (μ) Ke,[5],43 nM
same,antagonist activity DPDPE (δ) Ke,[6],0.49 nM
same,agonist activity MVD % max resp,mouse vas deferens (MVD) [7],16%
